From patent US8790934B2, “Nanoparticles” (Consejo Superior de Investigaciones Cientificas, priority 2000, dated 2014)

Assay: solubility in methanol and water
Type: physicochemical
Conditions: for solubility in methanol: methanol (MeOH)
Protocol: Synthesis of glyconanoparticles: A solution of disulphide 1,2, or 3 (0.012M, 5.5 eq) in MeOH was added to a solution of tetrachloroauric acid (0.025M, 1 eq) in water. NaBH4 (1M, 22 eq) in water was added in small portions with rapid stirring. The black suspension that was formed was stirred for additional 2 hours and the solvent was then removed under vacuum. The crude of the reaction was washed with MeOH and was centrifuged for 10 minutes. The methanol was removed and the process was repeated several times until the starting material was not detected by TLC. The glyco-nanoparticles are completely insoluble in MeOH but quite soluble in water. • They were purified by dialysis: 50 mg of crude product was dissolved in 10 mL of water (NANOpure). This solution was loaded into 10 cm segments of cellulose ester dialysis membrane (SIGMA, MWCO=12400) and placed in 4 L of water (NANOpure). The dark glyconanoparticles solution was collected from the dialysis segments and lyophilized. The products obtained were free of salts and starting material (absence of signals due to disulphide and Na^+ in NMR).
The presentation of the carbohydrate molecules at the nanoparticles surface was then investigated. The molecular properties of the neoglycoconjugates 1, 2 and 3 suffer a differential change after attaching them to the gold surface. […] The Le^x derivative 3 is soluble in methanol and water, its nanoparticle 3-Au, however, is insoluble in methanol and very soluble in water. These differences in solubility can be used to purify the glyconanoparticles from the non-reacted disulfides by washing them with methanol. However, the most significant fact in these changes is that they reveal the influence of clustering at the surface on the carbohydrate presentation to the surrounding.

Row | solubility in methanol | solubility in water | SMILES
1 | soluble | insoluble | OCC1OC(OC2C(CO)OC(OCCCCCCCCCCCSSCCCCCCCCCCCOC3OC(CO)C(OC4OC(CO)C(O)C(O)C4O)C(O)C3O)C(O)C2O)C(O)C(O)C1O (stereo not shown) [Compound 2]
2 | soluble | soluble | CC(=O)N[C@H]1[C@H](OCCCCCCCCCCCSSCCCCCCCCCCCO[C@@H]2O[C@H](CO)[C@@H](O[C@@H]3O[C@H](CO)[C@H](O)[C@H](O)[C@H]3O)[C@H](O[C@@H]3O[C@@H](C)[C@@H](O)[C@@H](O)[C@@H]3O)[C@H]2NC(C)=O)O[C@H](CO)[C@@H](O[C@@H]2O[C@H](CO)[C@H](O)[C@H](O)[C@H]2O)[C@@H]1O[C@@H]1O[C@@H](C)[C@@H](O)[C@@H](O)[C@@H]1O [Compound 3]
